For series [1], the system named is multiple myeloma cell line NCl-H929. The series can be described thus: H929 Cell Viability Assay. To be noted: Homo sapiens, NCI-H929, 48 h, H929, read-out: 48 hr H929 Viability Celltiter-Glo: Mean EC50. It is filed as cell-based, human. Put shortly:
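NCI-H929 myeloma cells in RPMI 1640 with 10% FBS were treated with compound dilutions for 48 h at 37 °C, and viability was then read by CellTiter-Glo luminescence. Compounds drawn without stereochemistry were tested as stereoisomer mixtures.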
(In general: In ATP-based viability assays light output follows the ATP content of the culture.)

The nature of series [2]: In Vitro Microsome Stability Assay (rat). It counts as in vitro ADME. To be noted: rat, 30 min, NADPH. Summed up: (§1)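 Test article, added from a 0.25 mM DMSO stock, was incubated with liver microsomes (20 mg/mL stock) in 0.1 M potassium phosphate at 37° C, with the reaction started by NADPH. Samples were quenched with acetonitrile containing internal standard at 0 and 30 min and analysed by LC-MS/MS. Values are % remaining at 30 min versus 0 min, using IS-normalised AUC ratios.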

The test system of series [3] is multiple myeloma cell line U266B1. The series can be described thus: U266 Cell Viability Assay. The note with it: Homo sapiens, U-266; 48 hr, U266; read-out: 48 hr U266 Viability Celltiter-Glo: Mean EC50. It counts as cell-based, human. Put shortly:
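U266B1 myeloma cells in RPMI 1640 with 10% FBS were treated with compound dilutions for 48 h at 37° C, 5% CO2. Viability was read as CellTiter-Glo luminescence. Data for structures drawn without stereochemistry refer to stereoisomer mixtures.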

Series [4] can be described thus: In Vitro Microsome Stability Assay (mouse). It counts as in vitro ADME. To be noted: mouse, 30 min, NADPH. Summed up:
as §1

The test system of series [5] is full length IL-2 (amino acids 1-153) fused to Gaussia Luciferase. The series can be described thus: Dox Induced IL2-FL-Gluc Assay. It is filed as cell-based. To be noted: 24 hr, 293FRT/TO; read-out: 24 hr Dox Inducible IL2FLGluc 293FRT/TO: Mean IC50. An excerpt: FIp-In 293 T-REx™ cells were transfected with pcDNA™5/FRT/TO plasmid inserted with cDNA encoding Gaussia Luciferase fused to the 3′ end of cDNA encoding full length IL-2 (amino acids 1-153). Transfected cells were selected for resistance to the selectable markers Hygromycin and Blasticidin to create a stable cell line that contained the IL-2-FL/Gaussia Luciferase cDNA insert whose expression was regulated under the T-REx™ system. The day before assay, cells were trypsinized and plated in 384-well tissue culture plates. The next day, compound dilutions in DMSO/media containing doxycycline were added to the wells and incubated at 37° C., 5% CO2.
For chemical structures that include one or more stereoisomers, but are illustrated without indicating stereochemistry, the assay data refers to a mixture of stereoisomers.

A short description of series [6]: In Vitro Microsome Stability Assay (monkey). It is filed as in vitro ADME. To be noted: monkey, 30 min, NADPH. Summed up:
as §1

Series [7] can be described thus: In Vitro Microsome Stability Assay (human). It is filed as in vitro ADME. The note with it: human, 30 min, NADPH. Put shortly: as §1
Series [8] has as its system full length TNFα (amino acids 1-233) fused to Gaussia Luciferase. As to the kind of experiment: Dox Induced TNFα-FL-Gluc Assay. It counts as cell-based. To be noted: 24 hr, 293FRT/TO; read-out: 24 hr Dox Inducible TNFaFLGluc 293FRT/TO: Mean IC50. Summed up: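 Stable Flp-In 293 T-REx line expressing doxycycline-inducible full-length TNFα fused to Gaussia luciferase; cells plated the day before, then treated with compound dilutions in doxycycline-containing medium at 37° C, 5% CO2. Unspecified stereocentres mean stereoisomer mixtures were tested.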

For series [9], the system named is PD1 signal sequence plus 10 amino acids fused to Gaussia Luciferase (PD1-ss+10aa/Gaussia Luciferase). As to the kind of experiment: Dox Induced PD1-ss-Gluc Assay. It is filed as cell-based. The note with it: 24 hr, 293FRT/TO; read-out: 24 hr Dox Inducible PD1ssGluc 293FRT/TO: Mean IC50. Put shortly: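 Stable Flp-In 293 T-REx line expressing the fusion under tetracycline-inducible control, plated the day before assay. Compound dilutions added with doxycycline and incubated at 37 °C, 5% CO2; unspecified stereocentres mean data refer to stereoisomer mixtures.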

Molecules are shown by their SMILES.

On to `C[C@H]1CN(S(=O)(=O)c2ccc(N(C)C)cc2)CCCN(CC2CCCCC2)CCCN(S(=O)(=O)N2CCN(c3ncccn3)CC2)C1` [A93, 4-{[(3S)-9-(cyclohexylmethyl)-3-methyl-5-{[4-(pyrimidin-2-yl)piperazin-1-yl]sulfonyl}-1,5,9-triazacyclododecan-1-yl]sulfonyl}-N,N-dimethylaniline], for which the EC50 in [1] was 10400 nM; in series [3] it was more than 25000 nM. The “Liver Microsome Stability-% Left after 30 min w/ NADPH (%) Rat” value (“Liver Microsome Stability-% Left … (%) Rat” for short) in series [2] amounted to 0.51%. Moreover, the “Liver Microsome Stability-% Left after 30 min w/ NADPH (%) Mouse” value (“Liver Microsome Stability-% Left … (%) Mouse” for short) in [4] stood at 0.4%. Also, the values for the IC50 in series [5], in series [8] and in series [9] were 911 nM, more than 25000 nM and 670 nM, respectively. Besides, in series [6], the “Liver Microsome Stability-% Left after 30 min w/ NADPH (%) Monkey” value (shortened to “Liver Microsome Stability-% Left … (%) Monkey”) is 0.18%. For the same compound, the “Liver Microsome Stability-% Left after 30 min w/ NADPH (%) Human” value (“Liver Microsome Stability-% Left … (%) Human” for short) in [7] was found to be 0.84%.
In the case of `C[C@H]1CN(S(=O)(=O)c2ccc(N(C)C)cc2)CCCN(CC2CCCCC2)CCCN(S(=O)(=O)N2CCN(c3ccccc3F)CC2)C1` [A94, 4-{[(3S)-9-(cyclohexylmethyl)-5-{[4-(2-fluorophenyl)piperazin-1-yl]sulfonyl}-3-methyl-1,5,9-triazacyclododecan-1-yl]sulfonyl}-N,N-dimethylaniline], the EC50 is 800 nM in [1] and more than 25000 nM in series [3]. Besides, in series [2], the “Liver Microsome Stability-% Left … (%) Rat” value was 45.5%. The “Liver Microsome Stability-% Left … (%) Mouse” value in series [4] is 45.7%. Besides, the IC50 is 78.3 nM in series [5], 550 nM in series [8] and 36.4 nM in series [9]. Besides, the “Liver Microsome Stability-% Left … (%) Monkey” value in [6] is listed as 30.3%. The “Liver Microsome Stability-% Left … (%) Human” value in [7] is on record as 42.1%.
Consider `C[C@H]1CN(S(=O)(=O)c2ccc(N(C)C)cc2)CCCN(CC2CCCCC2)CCCN(S(=O)(=O)N2CCN(c3cccc(F)c3)CC2)C1` [A95, 4-{[(3S)-9-(cyclohexylmethyl)-5-{[4-(3-fluorophenyl)piperazin-1-yl]sulfonyl}-3-methyl-1,5,9-triazacyclododecan-1-yl]sulfonyl}-N,N-dimethylaniline], for which the EC50 in [1] is 6710 nM; in [3] it was more than 25000 nM. Also, in series [2], the “Liver Microsome Stability-% Left … (%) Rat” value is recorded as 43.1%. For the same compound, in series [4], the “Liver Microsome Stability-% Left … (%) Mouse” value turned out to be 54.2%. Besides, the IC50 was found to be 391 nM in series [5], 4900 nM in series [8] and 198 nM in [9]. Also, the “Liver Microsome Stability-% Left … (%) Monkey” value in series [6] stood at 46.1%. The “Liver Microsome Stability-% Left … (%) Human” value in [7] is recorded as 43.9%.
Regarding `C[C@H]1CN(S(=O)(=O)c2ccc(N(C)C)cc2)CCCN(CC2CCCCC2)CCCN(S(=O)(=O)N2CCN(c3ccc(F)cc3)CC2)C1` [A96, 4-{[(3S)-9-(cyclohexylmethyl)-5-{[4-(4-fluorophenyl)piperazin-1-yl]sulfonyl}-3-methyl-1,5,9-triazacyclododecan-1-yl]sulfonyl}-N,N-dimethylaniline], the concentration for a half-maximal effect (EC50) in series [1] was 5100 nM; in series [3], more than 25000 nM. In series [2], the “Liver Microsome Stability-% Left … (%) Rat” value came to 41.9%. Besides, the “Liver Microsome Stability-% Left … (%) Mouse” value in series [4] turned out to be 37.6%. The IC50 in [5] is 232 nM; in [8] it was 1850 nM; in series [9], 122 nM. Moreover, in [6], the “Liver Microsome Stability-% Left … (%) Monkey” value came out at 32.8%. In addition, the “Liver Microsome Stability-% Left … (%) Human” value in series [7] is 40.5%.
With `Cc1ccccc1N1CCN(S(=O)(=O)N2CCCN(CC3CCCCC3)CCCN(S(=O)(=O)c3ccc(N(C)C)cc3)C[C@H](C)C2)CC1` [A97, 4-{[(3S)-9-(cyclohexylmethyl)-3-methyl-5-{[4-(2-methylphenyl)piperazin-1-yl]sulfonyl}-1,5,9-triazacyclododecan-1-yl]sulfonyl}-N,N-dimethylaniline], the EC50 in series [1] is 726 nM; in series [3], more than 25000 nM. Further, the “Liver Microsome Stability-% Left … (%) Rat” value in series [2] amounted to 71.4%. In [4], the “Liver Microsome Stability-% Left … (%) Mouse” value worked out at 77.7%. The values for the IC50 in series [5], in [8] and in series [9] were 87 nM, 566 nM and 41.8 nM, respectively. In addition, the “Liver Microsome Stability-% Left … (%) Monkey” value in series [6] is 66.1%. For the same compound, the “Liver Microsome Stability-% Left … (%) Human” value in series [7] is 71.1%.

Usually EC50 stands for the concentration at which the effect is half-maximal.

For the origin of these results see patent US11578055B2, “Triazacyclododecansulfonamide (“TCD”)-based protein secretion inhibitors” (KEZAR LIFE SCIENCES, priority 2018, dated 2023).
